Reference: ChEMBL document CHEMBL1201862, “PubChem BioAssay data set” (2004)
Activity calls are given as the source filed them.

Legend:
[1] = target: T1, Type-1 angiotensin II receptor (Homo sapiens, UniProt P30556); assay: antagonism of angiotensin II type 1 receptor – cell-based, uHTS hits, selectivity assay for APJ receptor antagonist project, dose response (AID 463214); assay type: functional;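 further: antagonist potency against angiotensin II stimulated AT1 response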
T1 sequence (P30556 whole entry): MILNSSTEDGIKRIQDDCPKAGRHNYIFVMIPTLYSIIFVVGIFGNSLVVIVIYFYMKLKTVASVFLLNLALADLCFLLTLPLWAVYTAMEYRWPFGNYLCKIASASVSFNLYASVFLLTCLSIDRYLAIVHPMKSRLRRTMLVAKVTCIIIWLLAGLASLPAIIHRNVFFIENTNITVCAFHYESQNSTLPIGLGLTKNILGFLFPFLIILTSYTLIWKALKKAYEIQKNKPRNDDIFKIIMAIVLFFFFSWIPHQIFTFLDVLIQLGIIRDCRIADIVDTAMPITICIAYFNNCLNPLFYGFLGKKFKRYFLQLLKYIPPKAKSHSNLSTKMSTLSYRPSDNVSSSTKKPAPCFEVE

[2] = target: Long-chain-fatty-acid--AMP ligase FadD28 (Mycobacterium tuberculosis, UniProt P9WQ59); assay: Fluorescence polarization aasay to screen for inhibitors that compete for the binding of FadD28 to a bisubstrate Measured in Biochemical System Using Plate Reader - 2147-01_Inhibitor_Dose_CherryPick_Activity.; assay type: functional, Mycobacterium tuberculosis H37Rv
Long-chain-fatty-acid--AMP ligase FadD28, sequence (P9WQ59 whole entry): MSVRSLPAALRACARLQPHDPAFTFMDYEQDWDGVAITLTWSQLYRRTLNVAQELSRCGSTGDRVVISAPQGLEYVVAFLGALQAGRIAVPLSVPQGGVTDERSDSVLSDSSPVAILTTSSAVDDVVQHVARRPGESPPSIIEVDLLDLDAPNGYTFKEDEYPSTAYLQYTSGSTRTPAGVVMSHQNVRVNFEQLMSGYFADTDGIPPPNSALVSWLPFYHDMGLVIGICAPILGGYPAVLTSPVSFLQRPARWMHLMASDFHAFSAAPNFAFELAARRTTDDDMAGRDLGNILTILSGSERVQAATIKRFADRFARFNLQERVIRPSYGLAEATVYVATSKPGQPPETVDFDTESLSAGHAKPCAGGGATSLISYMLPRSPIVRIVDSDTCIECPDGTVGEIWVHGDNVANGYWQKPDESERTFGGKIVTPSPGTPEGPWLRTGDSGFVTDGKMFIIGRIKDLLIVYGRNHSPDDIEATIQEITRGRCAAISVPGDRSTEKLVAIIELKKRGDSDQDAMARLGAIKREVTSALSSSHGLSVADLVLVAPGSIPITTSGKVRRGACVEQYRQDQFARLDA

[3] = target: Beta-galactosidase (Escherichia coli, UniProt Q8VNN2); assay: PubChem AID 485352; assay type: functional
Beta-galactosidase, sequence (Q8VNN2 whole entry): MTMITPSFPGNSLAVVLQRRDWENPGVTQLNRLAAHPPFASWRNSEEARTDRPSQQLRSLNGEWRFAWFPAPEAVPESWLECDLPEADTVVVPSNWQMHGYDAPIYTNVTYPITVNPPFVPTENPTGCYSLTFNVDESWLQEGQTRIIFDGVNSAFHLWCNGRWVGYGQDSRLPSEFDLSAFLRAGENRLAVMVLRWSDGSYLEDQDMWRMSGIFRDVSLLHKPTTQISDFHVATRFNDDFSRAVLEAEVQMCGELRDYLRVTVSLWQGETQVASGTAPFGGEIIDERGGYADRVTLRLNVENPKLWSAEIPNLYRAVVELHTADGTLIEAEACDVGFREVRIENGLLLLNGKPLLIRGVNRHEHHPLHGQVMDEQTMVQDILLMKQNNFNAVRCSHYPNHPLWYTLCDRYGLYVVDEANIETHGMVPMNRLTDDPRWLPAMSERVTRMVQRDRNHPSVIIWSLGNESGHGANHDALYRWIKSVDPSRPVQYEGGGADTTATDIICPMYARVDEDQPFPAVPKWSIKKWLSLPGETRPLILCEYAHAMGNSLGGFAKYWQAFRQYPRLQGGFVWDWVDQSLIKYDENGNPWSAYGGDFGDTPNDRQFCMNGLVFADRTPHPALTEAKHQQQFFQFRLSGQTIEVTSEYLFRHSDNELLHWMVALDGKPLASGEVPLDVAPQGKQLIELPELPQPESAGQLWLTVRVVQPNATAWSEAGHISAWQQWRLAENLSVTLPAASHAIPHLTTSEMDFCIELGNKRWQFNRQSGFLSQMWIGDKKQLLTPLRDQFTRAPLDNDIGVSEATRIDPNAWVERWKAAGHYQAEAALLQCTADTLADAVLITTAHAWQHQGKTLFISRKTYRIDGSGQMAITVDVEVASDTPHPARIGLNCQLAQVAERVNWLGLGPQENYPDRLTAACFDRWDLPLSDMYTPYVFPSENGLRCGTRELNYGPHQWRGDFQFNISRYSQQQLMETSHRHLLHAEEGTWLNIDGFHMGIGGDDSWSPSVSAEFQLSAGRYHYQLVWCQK

[4] = target: T2, Sentrin-specific protease 8 (Homo sapiens, UniProt Q96LD8); assay type: functional
T2 sequence (Q96LD8 whole entry): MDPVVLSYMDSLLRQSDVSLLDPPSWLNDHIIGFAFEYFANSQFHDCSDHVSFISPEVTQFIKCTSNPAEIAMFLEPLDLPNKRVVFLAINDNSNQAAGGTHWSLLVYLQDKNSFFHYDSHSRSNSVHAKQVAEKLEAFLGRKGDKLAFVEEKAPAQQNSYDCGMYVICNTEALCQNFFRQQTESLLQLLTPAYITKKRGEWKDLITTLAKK

[5] = target: T2, Sentrin-specific protease 8; assay type: functional; remark: listed apart in the source
[6] = target: T3, Caspase-3 (Homo sapiens, UniProt P42574); assay: Dose-response confirmation of uHTS inhibitor hits of Sentrin-Specific Protease 8 in a Caspase-3 Fluorescence assay.; assay type: functional
T3 sequence (P42574 whole entry): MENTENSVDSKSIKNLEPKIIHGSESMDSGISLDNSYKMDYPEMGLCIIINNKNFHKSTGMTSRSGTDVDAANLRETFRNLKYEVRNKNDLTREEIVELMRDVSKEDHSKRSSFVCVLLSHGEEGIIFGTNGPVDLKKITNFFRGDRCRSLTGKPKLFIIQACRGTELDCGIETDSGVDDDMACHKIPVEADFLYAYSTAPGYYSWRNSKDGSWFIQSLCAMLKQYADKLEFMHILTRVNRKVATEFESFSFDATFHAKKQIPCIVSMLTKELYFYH

[7] = microbe, parasite or virus in culture; assay type: functional; settings: Mycobacterium tuberculosis
[8] = blockers of HIV-1 envelope-mediated cell-cell fusion – cherry-pick, dose response (AID 652057); assay type: functional, cell-based
[9] = target: Mu-type opioid receptor (Homo sapiens, UniProt P35372); assay type: functional, cell-based;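 further: U2OS cells with beta-arrestin recruitment to OPRM1 by beta-gal complementation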
Mu-type opioid receptor, sequence (P35372 whole entry, the tested form may be a part): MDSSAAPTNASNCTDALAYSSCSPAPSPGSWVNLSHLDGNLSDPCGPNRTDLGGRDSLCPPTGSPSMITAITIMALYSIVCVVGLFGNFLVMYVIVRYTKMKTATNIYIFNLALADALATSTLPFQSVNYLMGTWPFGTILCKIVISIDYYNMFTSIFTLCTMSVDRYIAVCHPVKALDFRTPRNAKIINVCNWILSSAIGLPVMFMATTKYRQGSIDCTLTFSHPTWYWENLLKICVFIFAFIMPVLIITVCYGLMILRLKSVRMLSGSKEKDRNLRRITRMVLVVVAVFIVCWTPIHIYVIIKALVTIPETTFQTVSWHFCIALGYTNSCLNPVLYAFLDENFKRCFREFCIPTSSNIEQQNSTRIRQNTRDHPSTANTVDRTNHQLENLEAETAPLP

[10] = viability loss in CEM21 cells – cell-based, CellTiter-Glo luminescence, cherry-picked, cytotoxicity control for viral fusion inhibitor project, dose response (AID 652042); assay type: functional;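 further: potency for signal decrease meaning cytotoxicity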
[11] = off-target signal loss in HeLa-CEM21 co-culture – HeLa F-luc CTL cells, cherry-picked, counter-screen for HIV-1 Env fusion inhibitor project, dose response (AID 652040); assay type: functional, cell-based;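 further: potency for signal decrease marking cytotoxic or nonspecific inhibition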
[12] = target: 5-hydroxytryptamine receptor 2A (Mus musculus, UniProt P35363); assay type: functional, cell-based;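 further: CHO-K1 cells with tagged receptor and beta-arrestin; agonist potency measured as compound-induced activation of the receptor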
5-hydroxytryptamine receptor 2A, sequence (P35363 whole entry): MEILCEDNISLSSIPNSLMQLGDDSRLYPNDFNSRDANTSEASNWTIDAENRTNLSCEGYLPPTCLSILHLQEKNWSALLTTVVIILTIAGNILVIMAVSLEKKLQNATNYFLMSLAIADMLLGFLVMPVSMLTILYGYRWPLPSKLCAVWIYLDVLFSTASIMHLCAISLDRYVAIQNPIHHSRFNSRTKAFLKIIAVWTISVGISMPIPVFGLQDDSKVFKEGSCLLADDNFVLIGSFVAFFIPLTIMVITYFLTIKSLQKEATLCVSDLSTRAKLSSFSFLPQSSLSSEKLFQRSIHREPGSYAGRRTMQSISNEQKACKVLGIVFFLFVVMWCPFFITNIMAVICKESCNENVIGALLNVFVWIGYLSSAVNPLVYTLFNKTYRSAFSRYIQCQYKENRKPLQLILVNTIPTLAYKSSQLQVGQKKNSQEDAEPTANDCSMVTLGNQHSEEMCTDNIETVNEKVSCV

[13] = system: Escherichia coli; assay: microbe, parasite or virus in culture
[14] = blockers of HIV-1 ZM109 envelope-driven cell-cell fusion – HeLa effector, CEM target cells, luciferase, cherry-pick, dose response (AID 652058); assay type: functional, cell-based;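 further: luciferase signal from HIV-1 Env mediated cell-cell fusion of effector and target cells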
[15] = system: Escherichia coli; assay: microbe, parasite or virus in culture; remark: listed apart in the source
[16] = HIV-1 AD8 envelope cell-cell fusion blockers – cherry-pick, dose response (AID 652062); assay type: functional, cell-based;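 further: luciferase signal from cell-cell fusion driven by HIV-1 clade B AD8 Env; potency is for inhibitors of fusion seen as a drop in luminescence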
[17] = target: Arf-GAP with SH3 domain, ANK repeat and PH domain-containing protein 1 (Homo sapiens, UniProt Q9ULH1); assay type: functional;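 further: biochemical fluorescence polarization dose–response screen measuring inhibition of ASAP1; ASAP1 GAP domain stimulating GTP hydrolysis by truncated human ARF1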
Arf-GAP with SH3 domain, ANK repeat and PH domain-containing protein 1, sequence (Q9ULH1 whole entry, the tested form may be a part): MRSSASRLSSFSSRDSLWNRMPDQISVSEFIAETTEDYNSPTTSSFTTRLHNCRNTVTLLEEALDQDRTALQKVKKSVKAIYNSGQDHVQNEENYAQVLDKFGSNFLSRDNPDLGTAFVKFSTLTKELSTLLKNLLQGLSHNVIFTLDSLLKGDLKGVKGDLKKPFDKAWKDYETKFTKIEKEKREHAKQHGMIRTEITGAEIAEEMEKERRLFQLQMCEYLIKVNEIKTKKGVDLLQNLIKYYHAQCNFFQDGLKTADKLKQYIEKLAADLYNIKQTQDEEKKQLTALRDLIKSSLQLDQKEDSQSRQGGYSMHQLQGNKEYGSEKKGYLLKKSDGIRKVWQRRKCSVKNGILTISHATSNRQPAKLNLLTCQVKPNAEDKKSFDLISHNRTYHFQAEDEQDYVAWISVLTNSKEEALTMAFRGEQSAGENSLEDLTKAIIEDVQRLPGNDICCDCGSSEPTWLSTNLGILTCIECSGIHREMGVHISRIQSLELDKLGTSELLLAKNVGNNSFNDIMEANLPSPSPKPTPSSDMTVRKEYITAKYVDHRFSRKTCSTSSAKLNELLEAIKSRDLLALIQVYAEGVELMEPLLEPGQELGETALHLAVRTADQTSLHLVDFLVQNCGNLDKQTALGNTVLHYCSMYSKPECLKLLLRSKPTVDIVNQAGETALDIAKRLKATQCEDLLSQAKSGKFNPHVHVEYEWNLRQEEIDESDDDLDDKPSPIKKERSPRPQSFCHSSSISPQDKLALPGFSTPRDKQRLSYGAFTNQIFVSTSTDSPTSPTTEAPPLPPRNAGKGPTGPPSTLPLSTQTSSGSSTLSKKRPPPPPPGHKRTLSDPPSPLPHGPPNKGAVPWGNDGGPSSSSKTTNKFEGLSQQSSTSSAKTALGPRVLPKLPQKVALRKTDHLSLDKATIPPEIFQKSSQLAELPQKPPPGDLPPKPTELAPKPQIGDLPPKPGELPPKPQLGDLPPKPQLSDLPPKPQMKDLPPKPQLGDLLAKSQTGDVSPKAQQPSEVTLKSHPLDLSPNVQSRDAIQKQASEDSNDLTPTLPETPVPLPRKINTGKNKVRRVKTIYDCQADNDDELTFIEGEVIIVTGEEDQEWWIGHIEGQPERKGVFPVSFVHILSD

[18] = target: T4, Protein RecA (Mycobacterium tuberculosis, UniProt P9WHJ3); assay: Fluorescence Cell-Free Homogeneous Dose Retest to Identify Inhibitors of RecA-Intein Splicing Activity. [Related pubchem assays (depositor defined):AID2097, AID2223, AID489010, AID492950]; assay type: functional
T4 sequence (P9WHJ3 whole entry): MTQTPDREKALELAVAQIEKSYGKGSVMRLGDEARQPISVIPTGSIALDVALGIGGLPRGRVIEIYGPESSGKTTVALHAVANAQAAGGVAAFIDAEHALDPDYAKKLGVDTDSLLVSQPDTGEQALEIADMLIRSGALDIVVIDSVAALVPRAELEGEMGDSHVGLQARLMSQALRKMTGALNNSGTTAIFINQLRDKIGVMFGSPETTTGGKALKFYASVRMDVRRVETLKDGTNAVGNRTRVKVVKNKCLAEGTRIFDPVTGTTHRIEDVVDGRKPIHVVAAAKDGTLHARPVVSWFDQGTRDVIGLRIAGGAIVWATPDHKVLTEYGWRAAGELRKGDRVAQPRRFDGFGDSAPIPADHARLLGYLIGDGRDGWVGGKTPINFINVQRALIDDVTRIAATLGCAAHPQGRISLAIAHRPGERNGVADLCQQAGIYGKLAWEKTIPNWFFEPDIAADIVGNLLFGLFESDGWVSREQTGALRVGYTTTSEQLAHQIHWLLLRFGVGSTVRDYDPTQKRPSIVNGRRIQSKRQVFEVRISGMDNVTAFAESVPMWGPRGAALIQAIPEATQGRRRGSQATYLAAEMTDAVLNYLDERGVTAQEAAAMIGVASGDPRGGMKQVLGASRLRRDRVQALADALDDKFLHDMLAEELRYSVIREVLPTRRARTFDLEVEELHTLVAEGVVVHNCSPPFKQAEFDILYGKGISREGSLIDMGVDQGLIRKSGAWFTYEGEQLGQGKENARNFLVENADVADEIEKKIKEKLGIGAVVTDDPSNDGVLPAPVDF

[19] = target: T5, Replicative DNA helicase DnaB (Mycobacterium tuberculosis, UniProt P9WMR3); assay: DnaB intein splicing inhibitors, dose response, biochemical, cell-free fluorescence (AID 449749); assay type: functional
T5 sequence (P9WMR3 whole entry): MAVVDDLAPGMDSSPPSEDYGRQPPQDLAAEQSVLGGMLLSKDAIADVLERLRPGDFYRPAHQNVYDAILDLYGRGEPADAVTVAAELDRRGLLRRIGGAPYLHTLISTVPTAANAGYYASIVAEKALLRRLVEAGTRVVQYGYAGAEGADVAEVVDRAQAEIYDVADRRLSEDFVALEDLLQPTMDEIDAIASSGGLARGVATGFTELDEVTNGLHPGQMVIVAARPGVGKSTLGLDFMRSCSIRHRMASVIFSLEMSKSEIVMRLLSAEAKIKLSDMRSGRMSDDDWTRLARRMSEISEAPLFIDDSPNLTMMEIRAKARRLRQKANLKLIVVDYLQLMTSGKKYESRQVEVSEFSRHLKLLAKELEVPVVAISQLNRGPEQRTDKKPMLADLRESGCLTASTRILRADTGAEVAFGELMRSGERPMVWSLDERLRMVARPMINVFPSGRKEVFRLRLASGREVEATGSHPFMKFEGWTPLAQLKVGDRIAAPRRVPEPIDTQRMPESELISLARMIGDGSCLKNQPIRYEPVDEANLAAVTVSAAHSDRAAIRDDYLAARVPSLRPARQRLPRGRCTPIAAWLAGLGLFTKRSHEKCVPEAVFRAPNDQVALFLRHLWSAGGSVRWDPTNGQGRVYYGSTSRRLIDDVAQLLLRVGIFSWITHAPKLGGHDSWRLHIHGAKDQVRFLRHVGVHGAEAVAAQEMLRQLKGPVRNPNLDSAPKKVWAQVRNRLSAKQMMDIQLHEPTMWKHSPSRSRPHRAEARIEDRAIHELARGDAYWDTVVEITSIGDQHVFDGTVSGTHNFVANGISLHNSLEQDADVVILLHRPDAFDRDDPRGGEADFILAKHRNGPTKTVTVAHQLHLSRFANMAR

[20] = target: T6, Tyrosyl-DNA phosphodiesterase 2 (Homo sapiens, UniProt O95551); assay: potency against TDP2 phosphodiesterase activity – biochemical, epi absorbance, IC50, dose response (AID 743297)
T6 sequence (O95551 whole entry): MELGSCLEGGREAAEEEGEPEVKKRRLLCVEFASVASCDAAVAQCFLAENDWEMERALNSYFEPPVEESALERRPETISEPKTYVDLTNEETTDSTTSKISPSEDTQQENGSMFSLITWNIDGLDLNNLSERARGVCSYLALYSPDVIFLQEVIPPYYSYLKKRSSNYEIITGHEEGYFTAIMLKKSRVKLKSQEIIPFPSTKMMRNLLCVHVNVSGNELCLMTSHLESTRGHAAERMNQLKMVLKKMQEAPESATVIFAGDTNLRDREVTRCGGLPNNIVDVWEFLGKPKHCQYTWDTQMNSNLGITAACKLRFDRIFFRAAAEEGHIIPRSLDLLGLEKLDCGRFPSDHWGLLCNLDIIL

[21] = target: T7, Apoptotic protease-activating factor 1 (Homo sapiens, UniProt O14727); assay type: functional
T7 sequence (O14727 whole entry): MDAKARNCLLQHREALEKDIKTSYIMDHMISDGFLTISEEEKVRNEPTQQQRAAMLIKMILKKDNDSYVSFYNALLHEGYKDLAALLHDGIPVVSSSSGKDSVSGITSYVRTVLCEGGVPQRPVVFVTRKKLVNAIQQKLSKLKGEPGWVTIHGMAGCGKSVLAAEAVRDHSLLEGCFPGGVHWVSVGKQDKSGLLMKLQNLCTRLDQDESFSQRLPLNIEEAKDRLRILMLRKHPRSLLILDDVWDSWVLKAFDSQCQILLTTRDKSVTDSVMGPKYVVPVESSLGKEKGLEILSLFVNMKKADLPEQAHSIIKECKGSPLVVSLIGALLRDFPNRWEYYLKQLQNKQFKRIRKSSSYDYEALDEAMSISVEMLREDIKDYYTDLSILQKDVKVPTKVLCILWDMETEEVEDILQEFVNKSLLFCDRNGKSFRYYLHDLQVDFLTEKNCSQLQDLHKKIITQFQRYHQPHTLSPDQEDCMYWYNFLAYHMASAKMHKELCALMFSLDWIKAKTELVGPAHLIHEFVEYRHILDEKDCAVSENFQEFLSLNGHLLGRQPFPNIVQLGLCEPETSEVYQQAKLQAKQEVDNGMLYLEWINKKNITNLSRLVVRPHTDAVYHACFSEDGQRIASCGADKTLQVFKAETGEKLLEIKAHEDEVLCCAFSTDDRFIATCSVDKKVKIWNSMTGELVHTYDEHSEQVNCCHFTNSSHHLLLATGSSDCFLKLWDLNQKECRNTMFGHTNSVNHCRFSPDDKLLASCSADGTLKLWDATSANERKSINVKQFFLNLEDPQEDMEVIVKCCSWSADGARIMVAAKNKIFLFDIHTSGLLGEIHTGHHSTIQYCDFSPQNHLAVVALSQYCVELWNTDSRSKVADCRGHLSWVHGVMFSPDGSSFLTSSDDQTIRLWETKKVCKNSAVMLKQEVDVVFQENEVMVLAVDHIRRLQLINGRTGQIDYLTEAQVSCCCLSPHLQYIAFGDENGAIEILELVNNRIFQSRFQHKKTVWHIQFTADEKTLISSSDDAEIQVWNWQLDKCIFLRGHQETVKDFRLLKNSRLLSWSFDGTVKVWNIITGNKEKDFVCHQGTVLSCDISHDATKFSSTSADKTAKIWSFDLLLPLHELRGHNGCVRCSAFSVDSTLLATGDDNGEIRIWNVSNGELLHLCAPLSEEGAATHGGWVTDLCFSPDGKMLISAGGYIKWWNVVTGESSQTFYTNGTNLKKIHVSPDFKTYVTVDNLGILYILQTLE

[22] = target: T8, Methionyl-tRNA synthetase, putative (Trypanosoma brucei brucei, UniProt Q38C91); assay type: functional, Trypanosoma brucei brucei strain 927/4 GUTat10.1
T8 sequence (Q38C91 whole entry): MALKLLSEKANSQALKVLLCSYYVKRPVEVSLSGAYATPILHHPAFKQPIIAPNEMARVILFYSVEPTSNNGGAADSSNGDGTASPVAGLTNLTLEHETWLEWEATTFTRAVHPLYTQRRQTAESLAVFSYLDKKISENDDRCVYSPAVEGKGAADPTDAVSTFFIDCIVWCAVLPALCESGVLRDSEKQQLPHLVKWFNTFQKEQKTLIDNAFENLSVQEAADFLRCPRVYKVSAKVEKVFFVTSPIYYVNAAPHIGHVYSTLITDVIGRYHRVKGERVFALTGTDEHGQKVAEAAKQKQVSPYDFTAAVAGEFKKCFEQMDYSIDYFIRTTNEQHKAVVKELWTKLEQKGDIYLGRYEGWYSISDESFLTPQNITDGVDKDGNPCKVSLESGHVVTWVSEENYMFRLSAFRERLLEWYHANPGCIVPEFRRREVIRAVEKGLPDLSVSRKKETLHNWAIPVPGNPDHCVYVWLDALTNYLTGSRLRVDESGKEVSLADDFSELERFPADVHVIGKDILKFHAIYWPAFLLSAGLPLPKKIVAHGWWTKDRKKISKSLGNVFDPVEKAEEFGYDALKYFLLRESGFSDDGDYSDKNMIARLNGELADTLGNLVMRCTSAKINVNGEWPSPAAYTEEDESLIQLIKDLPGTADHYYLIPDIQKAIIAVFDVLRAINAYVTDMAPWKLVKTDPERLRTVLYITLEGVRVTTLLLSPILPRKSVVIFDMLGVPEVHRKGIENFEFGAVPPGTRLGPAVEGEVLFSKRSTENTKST

[23] = target: T8, Methionyl-tRNA synthetase, putative; assay type: functional, Trypanosoma brucei brucei strain 927/4 GUTat10.1; remark: listed apart in the source
[24] = Counterscreen for inhibitors of Trypanosoma brucei methionyl tRNA synthetase (MetRS): Luminescence-based cell-based high throughput dose response assay to identify compounds that are cytotoxic to Jurkat human T lymphocyte cells.; assay type: functional
[25] = mouse fibroblast viability loss – cell-based, cherry-pick samples, set 2, cytotoxicity control for T. cruzi growth inhibitor project, dose response (AID 651817); assay type: functional; settings: NIH3T3

With Cc1ccc(NC(=S)NNC(=O)c2ccc(N3CCOCC3)c([N+](=O)[O-])c2)cc1Cl the IC50 [1] was > 40 µM (not active), the AC50 [2] was 30.9 µM (active) and the EC50 [3] was > 40 µM (inactive).
For Cc1ccc(S(=O)(=O)N2CCOCC2)cc1C(=O)OCC(=O)N1CCc2ccccc2C1, the IC50 [4] was 24.4 µM (active), the IC50 [5] was 62.2 µM (inactive) and the IC50 [6] was 92.7 µM (inactive).
With CN(C)c1ccc(O)c2c1CC1CC3[C@@H](N(C)C)C(=O)C(C(N)=O)C(=O)[C@]3(O)C(=O)C1C2=O (stereo not given in full) the CC50 [7] was 29 µM (active), the AC50 [8] was < 0.26 µM (active) and the EC50 [9] was 92.5 µM (inactive). For the same compound, the AC50 [10] was 61.2 µM (active), the AC50 [11] was < 0.26 µM (active) and the EC50 [12] was 0.659 µM (active). For the same compound, the AC50 [13] was 11.8 µM (active), the AC50 [14] was < 0.26 µM (active) and the AC50 [15] was 1.35 µM (active). For the same compound, the AC50 [16] was < 0.26 µM (active).
In the case of CC(=O)c1cccc(-c2ccc3c(=O)[nH]c(Nc4ccccc4)cc3c2)c1, the IC50 [17] is reported as 165 µM (inactive), the EC50 [18] is reported as 2.14 µM (active) and the AC50 [19] is reported as > 380 µM (inactive). For the same compound, the IC50 [20] was 25.9 µM (inactive) and the IC50 [21] was 3.02 µM (active).
In the case of CSC[C@H]1CN(Cc2cccnc2)C(=O)[C@@H]1CC(=O)Nc1ccc(Br)cc1, the IC50 [22] is reported as 3.02 µM (active), the IC50 [23] is reported as 7.58 µM (active) and the IC50 [24] is reported as 83.3 µM (inactive).
In the case of Cc1ccc(S(=O)(=O)N(C)C[C@@H]2Oc3c(NC(=O)c4nc5ccccc5s4)cccc3C(=O)N([C@@H](C)CO)C[C@@H]2C)cc1, the AC50 [25] is reported as 39 µM (inactive).
